Reference: ChEMBL document CHEMBL1149627, “Erythrocarpines A-E, new cytotoxic limonoids from Chisocheton erythrocarpus” (Bioorg Med Chem, 2007)
≈ marks a conversion by molar mass, not a printed value.

Tested on: P388
Experiment: Cytotoxicity against mouse P388 cells by MTT assay
Assay type: functional, cell-based

Row | SMILES | IC50
1 | COC(=O)C[C@H]1C(C)(C)[C@H](OC(=O)/C=C/c2ccccc2)[C@@H]2C=C3[C@H](CC[C@@]4(C)[C@H](c5ccoc5)OC(=O)C[C@@]34O)[C@@]1(C)C2=O [ERYTHROCARPINE C] | 9.9 µg/mL (≈ 16.1 µM)
2 | COC(=O)C[C@H]1C(C)(C)[C@H](OC(=O)c2ccccc2)[C@@H]2C=C3[C@H](CC[C@@]4(C)[C@H](c5ccoc5)OC(=O)C[C@@]34O)[C@@]1(C)C2=O [ERYTHROCARPINE B] | 6 µg/mL (≈ 10.2 µM)
3 | COC(=O)C[C@H]1C(C)(C)[C@H](OC(=O)c2ccccc2)[C@@H]2C=C3C4=CC(=O)O[C@@H](c5ccoc5)[C@]4(C)CC[C@@H]3[C@@]1(C)C2=O [ERYTHROCARPINE A] | 2 µg/mL (≈ 3.49 µM)
4 | CO[C@@]12[C@H](COC(N)=O)C3=C(C(=O)C(C)=C(N)C3=O)N1C[C@@H]1N[C@@H]12 [MITOMYCIN] | 0.15 µg/mL (≈ 0.449 µM)
5 | COC(=O)C[C@H]1[C@@]2(C)CO[C@]3(O)[C@@H](C=C4C5=CC(=O)O[C@@H](c6ccoc6)[C@]5(C)CC[C@@H]4[C@]13C)[C@H]2OC(=O)/C=C/c1ccccc1 [ERYTHROCARPINE D] | 10 µg/mL (≈ 16.3 µM)
6 | COC(=O)C[C@H]1[C@@]2(C)CO[C@]3(O)[C@@H](C=C4[C@H](CC[C@@]5(C)[C@H](c6ccoc6)OC(=O)C[C@@]45O)[C@]13C)[C@H]2OC(=O)/C=C/c1ccccc1 [ERYTHROCARPINE E] | 16 µg/mL (≈ 25.3 µM)
